Measurements taken from patent US20190247449A1, “COMPOSITIONS COMPRISING A NON-PATHOGENIC BACTERIA AND METHODS FOR […] AND ANIMAL HOSTS FROM FUNGAL, BACTERIAL AND VIRAL DISEASES” (priority 2016, published 2019).

How the values were obtained:
Assay type in all cases: cell-based
NO production = experiment: Nitric oxide production by Griess assay in activated macrophages
Method: (§1) RAW 264.7 macrophages were grown in flat-bottomed flasks using a standard growth medium (DMEM supplemented with 5% FBS, antibiotics and glutamine. The cells were maintained in accordance with standard procedures well known in the art. After the cells reached confluence, they were removed from the flasks using mechanical means and then concentrated by centrifuging and resuspended in a small volume of fresh culture medium. The cell concentration was adjusted with growth medium in order that about 75,000 cells could be added to each well of a 96-well plate. A combination of 25 µg/mL LPS and 10 U/ml IFN-γ DMEM, was used for activation of the macrophages. The various test agents were added to the wells one hour prior to activation. The cells were then incubated for a further 24 hours, prior to assaying the inflammatory mediator production and cell viability.
The production of NO by the macrophages subjected to the various treatments was assayed using the Griess reagent (equal volumes of 1% sulphanilamide and 0.1% napthyethylene-diamine in 5% HCl). 70 μL of supernatant from each test well was transferred to a fresh 96-well plate and mixed with 70 μL of Griess reagent and the violet color produced was measured at 540 nm.

RAW 264.7 macrophages = experiment: Cell viability, Alamar Blue assay; conditions: % of untreated control cells
Method: as §1
The Alamar Blue assay of viability was performed by adding 100 μL of a 10% Alamar Blue solution to each well and incubating at 37° C. for 1-2 hr. Fluorescence was measured (excitation at 545 nm and emission at 595 nm) and expressed as a percentage of the values in untreated control cells.

TNF-α production = experiment: TNF-α determination by ELISA in activated macrophages; conditions: RAW 264.7 macrophages activated with LPS and IFN-γ, agents added one hour before, 24 hours
Method: as §1
A sandwich ELISA was used to determine TNF-α concentration. The primary antibody was used at a concentration of […] in PBS. Serial dilutions of TNF-α standard from 0 to 1000 pg/mL in diluent (0.05% Tween-20, 0.1% BSA in PBS) were used as internal standard. TNF-α was detected with a biotinylated second antibody and an avidin peroxidase conjugate with TMB as detection reagent. The color development was monitored at 655 nm, taking readings after every 5 minutes. After 25 minutes, the reaction was stopped using 0.5 M sulphuric acid and the absorbance was measured at 450 nm.

[1] = at the IC50 for inhibition of NO
[2] = at the IC50 for inhibition of TNF-α

Compound | IC50 (NO production; Mus musculus, RAW264.7, read-out: IC50 for the inhibition of NO production) [µg/mL] | Cell viability (% of cell survival) (RAW 264.7 macrophages; [1]) | Cell viability (% of cell survival) (RAW 264.7 macrophages; [2]) | IC50 (TNF-α production; Mus musculus, RAW264.7, read-out: IC50 for the inhibition of TNF-α production) [µg/mL] | IC50 for the inhibition of TNF-α production (TNF-α production) [µg/mL] | IC50 for the inhibition of NO production (NO production; RAW 264.7 macrophages activated with LPS and IFN-γ, agents added one hour before, 24 hours) [µg/mL]
C=C[C@](C)(O)CC[C@@H]1[C@@]2(C)CCCC(C)(C)[C@@H]2CC[C@@]1(C)O [Sclareol] | 40 | 96.20 ± 2.1 % of cell survival | 95.30 ± 2.2 % of cell survival | 80 |  | 
Steviol glycoside |  | 98.20 ± 4.2 % of cell survival | 99.54 ± 4.1 % of cell survival |  | 80 | 
Naringin |  | 90.10 ± 4.2 % of cell survival | 91.50 ± 5.2 % of cell survival |  | 90 | 40
